Measurements as given in patent US8785470B2, “Heterocyclic compounds and uses thereof” (Infinity Pharmaceuticals, Inc., priority 2011, dated 2014).
pEC50, pIC50: −log10 of the molar value.

Legend:
PI3Kβ = biological target: T1, PI3Kβ (Homo sapiens, UniProt P42338); assay: PI3-Kinase HTRF assay, PI3Kβ; format: biochemical; conditions: bins Greater than 10 μM and Greater than 1 μM to 10 μM; 10 μM ATP, PIP2 at 10 μM
T1 construct: purchased Millipore Corporation 14-603-K
Excerpt: (§1) A PI3-Kinase HTRF® assay kit (cat No. 33-016) purchased from Millipore Corporation was used to screen compounds provided herein. This assay used specific, high affinity binding of the GRPI pleckstrin homology (PH) domain to PIP3, the product of a Class 1A or 1B PI3 Kinase acting on its physiological substrate PIP2. During the detection phase of the assay, a complex was generated between the GST-tagged PH domain and biotinylated short chain PIP3. The biotinylated PIP3 and the GST-tagged PH domain recruited fluorophores (Streptavidin-Allophycocyanin and Europium-labeled anti-GST respectively) to form the fluorescence resonance energy transfer (FRET) architecture, generating a stable time-resolved FRET signal. The FRET complex was disrupted in a competitive manner by non-biotinylated PIP3, a product formed in the PI3 Kinase assay.
(§2) PI3 Kinase α, β, γ and δ activity was assayed using the PI3 Kinase HTRF® assay kit (catalogue No. 33-016) purchased from Millipore Corporation. Purified recombinant PI3Kα (catalogue No. 14-602-K), PI3Kβ (catalogue No. 14-603-K), PI3Kγ (catalogue No. 14-558-K) and PI3Kδ (catalogue No. 14-604-K) were obtained from Millipore Corporation. Purified recombinant PI3K enzyme was used to catalyze the phosphorylation of phosphatidylinositol 4,5-bisphosphate (PIP2 at 10 μM) to phosphatidylinositol 3,4,5-trisphosphate (PIP3) in the presence of 10 μM ATP. The assay was carried out in 384-well format and detected using a Perkin Elmer EnVision Xcite Multilabel Reader. Emission ratios were converted into percent inhibitions and imported into GraphPad Prism software. The concentration necessary to achieve inhibition of enzyme activity by 50% (IC50) was calculated using concentrations ranging from 20 μM to 0.1 nM (12-point curve). IC50 values were determined using a nonlinear regression model available in GraphPad Prism 5. […]

Balb/c splenic B cells = assay: B cell activation and proliferation assay; format: cell-based; conditions: Mus musculus, column bins 1 μM to 100 nM (given as 100-1000) and Less than 100 nM, read-out: B cell proliferation EC50
Description: The ability of one or more subject compounds to inhibit B cell activation and proliferation is determined according to standard procedures known in the art. For example, an in vitro cellular proliferation assay is established that measures the metabolic activity of live cells. The assay is performed in a 96 well microtiter plate using Alamar Blue reduction. Balb/c splenic B cells are purified over a Ficoll-Paque™ PLUS gradient followed by magnetic cell separation using a MACS B cell Isolation Kit (Miletenyi). Cells are plated in 90 μl at 50.000 cells/well in B Cell Media (RPMI+10% FBS+Penn/Strep+50 μME5 mM HEPES). A compound provided herein is diluted in B Cell Media and added in a 10 μl volume. Plates are incubated for 30 min at 37° C. and 5% CO2 (0.2% DMSO final concentration). A 50 μl B cell stimulation cocktail is then added containing either 10 μg/ml LPS or 5 μg/ml F(ab′)2 Donkey anti-mouse IgM plus 2 ng/ml recombinant mouse IL4 in B Cell Media. Plates are incubated for 72 hours at 37° C. and 5% CO2. A volume of 15 μL of Alamar Blue reagent is added to each well and plates are incubated for 5 hours at 37° C. and 5% CO2. Alamar Blue fluoresce is read at 560Ex/590Em, and IC50 or EC50 values are calculated using GraphPad Prism 5.

PI3Kα = biological target: T2, PI3Kα (Homo sapiens, UniProt P42336); assay: PI3-Kinase HTRF assay, PI3Kα; format: biochemical; conditions: bins Greater than 10 μM and Greater than 1 μM to 10 μM; 10 μM ATP, PIP2 at 10 μM; read-out: IC50 P13Kα
T2 construct: purchased Millipore Corporation 14-602-K
T2 sequence (P42336 whole entry): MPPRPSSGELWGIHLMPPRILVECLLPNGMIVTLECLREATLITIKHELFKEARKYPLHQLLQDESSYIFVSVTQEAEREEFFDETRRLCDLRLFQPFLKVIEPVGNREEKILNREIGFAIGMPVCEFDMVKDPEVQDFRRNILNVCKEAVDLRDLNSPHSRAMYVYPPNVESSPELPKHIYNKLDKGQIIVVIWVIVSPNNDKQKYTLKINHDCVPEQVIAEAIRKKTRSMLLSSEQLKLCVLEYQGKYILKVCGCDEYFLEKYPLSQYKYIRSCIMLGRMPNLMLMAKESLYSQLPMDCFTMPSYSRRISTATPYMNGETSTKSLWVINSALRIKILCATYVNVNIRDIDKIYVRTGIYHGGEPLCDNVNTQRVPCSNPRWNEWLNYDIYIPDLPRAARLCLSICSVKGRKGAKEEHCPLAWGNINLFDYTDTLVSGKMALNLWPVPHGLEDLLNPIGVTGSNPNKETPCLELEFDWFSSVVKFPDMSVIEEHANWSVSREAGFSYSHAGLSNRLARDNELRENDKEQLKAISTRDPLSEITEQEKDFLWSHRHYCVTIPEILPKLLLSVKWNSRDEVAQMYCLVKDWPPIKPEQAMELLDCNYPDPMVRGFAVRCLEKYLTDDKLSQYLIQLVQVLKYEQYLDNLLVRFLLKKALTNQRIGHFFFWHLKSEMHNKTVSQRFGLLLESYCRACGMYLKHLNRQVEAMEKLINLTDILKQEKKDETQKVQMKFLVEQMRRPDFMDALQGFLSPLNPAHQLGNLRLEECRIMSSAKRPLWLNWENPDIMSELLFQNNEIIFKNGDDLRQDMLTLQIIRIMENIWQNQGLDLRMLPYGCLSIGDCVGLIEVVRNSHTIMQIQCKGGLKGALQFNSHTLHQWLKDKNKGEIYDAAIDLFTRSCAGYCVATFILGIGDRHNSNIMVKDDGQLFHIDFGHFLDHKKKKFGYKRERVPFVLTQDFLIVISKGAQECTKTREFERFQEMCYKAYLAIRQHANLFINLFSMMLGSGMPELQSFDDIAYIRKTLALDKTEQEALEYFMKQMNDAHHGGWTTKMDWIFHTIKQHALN
T2 sequence (P27986 whole entry partner): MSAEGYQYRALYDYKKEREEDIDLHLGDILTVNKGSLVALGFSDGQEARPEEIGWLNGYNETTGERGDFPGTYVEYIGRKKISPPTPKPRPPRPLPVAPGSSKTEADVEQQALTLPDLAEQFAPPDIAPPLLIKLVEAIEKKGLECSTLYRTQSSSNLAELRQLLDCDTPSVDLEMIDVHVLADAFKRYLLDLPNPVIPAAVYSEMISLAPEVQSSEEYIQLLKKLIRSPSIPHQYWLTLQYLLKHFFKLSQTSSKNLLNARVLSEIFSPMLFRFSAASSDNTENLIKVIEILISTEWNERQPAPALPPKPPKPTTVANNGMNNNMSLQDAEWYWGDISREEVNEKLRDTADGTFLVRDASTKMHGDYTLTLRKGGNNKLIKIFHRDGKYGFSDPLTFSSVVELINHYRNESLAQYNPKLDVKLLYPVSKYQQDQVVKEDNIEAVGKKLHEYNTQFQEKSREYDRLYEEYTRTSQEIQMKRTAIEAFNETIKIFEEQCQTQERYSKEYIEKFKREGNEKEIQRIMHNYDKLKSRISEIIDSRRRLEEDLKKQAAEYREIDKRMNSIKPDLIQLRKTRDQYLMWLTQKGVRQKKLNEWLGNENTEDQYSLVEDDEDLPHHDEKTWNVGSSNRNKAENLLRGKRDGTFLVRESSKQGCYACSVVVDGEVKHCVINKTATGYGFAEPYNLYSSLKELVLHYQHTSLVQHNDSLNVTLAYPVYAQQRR
Excerpt: as §1, §2

T1 sequence (P42338 whole entry): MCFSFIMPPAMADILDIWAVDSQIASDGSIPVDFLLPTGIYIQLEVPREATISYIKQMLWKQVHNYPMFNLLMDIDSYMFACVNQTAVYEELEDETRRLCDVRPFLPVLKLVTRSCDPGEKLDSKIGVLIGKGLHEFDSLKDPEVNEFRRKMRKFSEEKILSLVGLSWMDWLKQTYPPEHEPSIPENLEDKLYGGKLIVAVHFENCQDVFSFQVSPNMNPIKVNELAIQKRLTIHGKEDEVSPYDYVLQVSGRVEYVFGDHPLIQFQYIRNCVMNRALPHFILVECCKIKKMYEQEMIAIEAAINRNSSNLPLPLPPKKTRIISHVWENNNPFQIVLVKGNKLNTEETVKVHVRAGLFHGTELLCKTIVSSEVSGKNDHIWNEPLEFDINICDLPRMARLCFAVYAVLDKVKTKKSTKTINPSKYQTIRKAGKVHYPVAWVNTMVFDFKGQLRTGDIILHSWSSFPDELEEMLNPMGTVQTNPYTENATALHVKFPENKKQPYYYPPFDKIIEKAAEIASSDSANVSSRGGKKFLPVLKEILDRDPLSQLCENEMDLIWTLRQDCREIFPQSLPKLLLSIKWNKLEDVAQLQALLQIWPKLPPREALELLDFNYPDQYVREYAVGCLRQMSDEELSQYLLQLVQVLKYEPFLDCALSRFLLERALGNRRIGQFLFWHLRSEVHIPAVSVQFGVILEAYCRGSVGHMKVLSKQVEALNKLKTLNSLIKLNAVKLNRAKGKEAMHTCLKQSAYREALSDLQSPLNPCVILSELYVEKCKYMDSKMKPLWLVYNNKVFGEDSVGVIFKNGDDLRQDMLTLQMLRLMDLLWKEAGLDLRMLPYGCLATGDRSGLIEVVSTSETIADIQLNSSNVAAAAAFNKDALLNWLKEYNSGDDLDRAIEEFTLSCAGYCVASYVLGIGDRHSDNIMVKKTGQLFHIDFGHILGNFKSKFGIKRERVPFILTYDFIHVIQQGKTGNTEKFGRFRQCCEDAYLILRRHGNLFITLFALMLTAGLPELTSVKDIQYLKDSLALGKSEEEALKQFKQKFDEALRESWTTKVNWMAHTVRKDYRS
T1 sequence (P27986 whole entry partner): as the sequence (P27986 whole entry partner) above

Row | Compound | pIC50 (PI3Kβ) | pEC50 (Balb/c splenic B cells) | pIC50 (PI3Kα)
1 | COc1cc(-c2cccc3cc([C@H](C)Nc4nc(N)ncc4-c4cnc(C)s4)n(-c4ccccc4)c(=O)c23)ccn1 [Compound 181] | 5.00 to 6.00 | > 7.00 | –
2 | C[C@H](Nc1nc(N)ncc1-c1ccncc1)c1cc2cccc(Cl)c2c(=O)n1-c1ccccc1 [Compound 168] | 5.00 to 6.00 | – | –
3 | C[C@H](Nc1nc(N)ncc1C#N)c1cc2cccc(Cl)c2c(=O)n1-c1cccc(F)c1F [Compound 282] | 5.00 to 6.00 | – | –
4 | COc1cc(-c2cccc3cc([C@H](C)Nc4nc(N)ncc4C#N)n(-c4ccccc4)c(=O)c23)cnc1OC [Compound 192] | 5.00 to 6.00 | > 7.00 | –
5 | CC(C)Oc1cncc(-c2cccc3cc([C@H](C)Nc4nc(N)ncc4C#N)n(-c4ccccc4)c(=O)c23)c1 [Compound 53] | 5.00 to 6.00 | – | –
6 | Cc1cccc(-c2cccc3cc([C@H](C)Nc4nc(N)ncc4C#N)n(-c4ccccc4)c(=O)c23)c1 [Compound 46] | 5.00 to 6.00 | – | –
7 | C[C@H](Nc1nc(N)ncc1C#N)c1cc2cccc(-c3ccc(=O)n(C4CCOCC4)c3)c2c(=O)n1-c1ccccc1 [Compound 235] | 5.00 to 6.00 | – | –
8 | C[C@H](Nc1nc(N)ncc1-c1ccccn1)c1cc2cccc(Cl)c2c(=O)n1-c1ccccc1 [Compound 375] | 5.00 to 6.00 | – | –
9 | COc1cccc(-c2cccc3cc([C@H](C)Nc4nc(N)ncc4C#N)n(-c4ccccc4)c(=O)c23)c1 [Compound 36] | 5.00 to 6.00 | – | –
10 | C[C@H](Nc1nc(N)ncc1-c1ccsc1)c1cc2cccc(Cl)c2c(=O)n1-c1ccccc1 [Compound 373] | 5.00 to 6.00 | – | –
11 | COc1cc(-c2cccc3cc([C@H](C)Nc4nc(N)ncc4-c4cnc(OC)s4)n(-c4ccccc4)c(=O)c23)ccn1 [Compound 140] | 5.00 to 6.00 | > 7.00 | –
12 | COc1cc(-c2cccc3cc([C@H](C)Nc4nc(N)ncc4C#N)n(-c4cccc(F)c4)c(=O)c23)ccn1 [Compound 28] | 5.00 to 6.00 | > 7.00 | –
13 | Cc1cnc(-c2cnc(N)nc2N[C@@H](C)c2cc3cccc(Cl)c3c(=O)n2-c2ccccc2)s1 [Compound 368] | 5.00 to 6.00 | – | –
14 | C[C@H](Nc1nc(N)ncc1C#N)c1cc2cccc(Cl)c2c(=O)n1-c1c(F)cc(F)cc1F [Compound 258] | 5.00 to 6.00 | – | –
15 | C#Cc1cccc2cc([C@H](C)Nc3nc(N)ncc3C#N)n(-c3ccccc3)c(=O)c12 [Compound 72] | – | > 7.00 | 5.00 to 6.00
16 | COc1ccc(-c2cccc3cc([C@H](C)Nc4nc(N)ncc4C#N)n(-c4ccccc4)c(=O)c23)nc1 [Compound 206] | – | > 7.00 | 5.00 to 6.00
17 | C[C@H](Nc1nc(N)ncc1C#N)c1cc2cccc(Cl)c2c(=O)n1-c1ccc(Cl)cc1 [Compound 217] | – | > 7.00 | 5.00 to 6.00
18 | C[C@H](Nc1nc(N)ncc1C#N)c1cc2cccc(Cl)c2c(=O)n1-c1cccc(F)c1 [Compound 18] | – | > 7.00 | 5.00 to 6.00
19 | Cc1ccc(-c2cccc3cc([C@H](C)Nc4nc(N)ncc4C#N)n(-c4ccccc4)c(=O)c23)cn1 [Compound 41] | – | > 7.00 | 5.00 to 6.00
20 | C[C@H](Nc1nc(N)ncc1C#N)c1cc2cccc(O)c2c(=O)n1-c1ccccc1 [Compound 145] | 5.00 to 6.00 | – | –
21 | C[C@H](Nc1nc(N)ncc1C(=O)N(C)C)c1cc2cccc(Cl)c2c(=O)n1-c1ccccc1 [Compound 199] | – | > 7.00 | 5.00 to 6.00
22 | C[C@H](Nc1nc(N)ncc1C#N)c1cc2cccc(Cl)c2c(=O)n1-c1ccc2c(c1)OCO2 [Compound 261] | 5.00 to 6.00 | – | –
23 | C[C@H](Nc1nc(N)ncc1-c1ccc(O)cc1)c1cc2cccc(Cl)c2c(=O)n1-c1ccccc1 [Compound 436] | 5.00 to 6.00 | – | –
24 | Cc1cccc2cc([C@H](C)Nc3nc(N)ncc3C#N)n(-c3cccc(F)c3)c(=O)c12 [Compound 15] | – | > 7.00 | 5.00 to 6.00

Row | Compound | pIC50 (PI3Kβ) | pEC50 (Balb/c splenic B cells) | pIC50 (PI3Kα)
25 | CNc1cc(-c2cccc3cc([C@H](C)Nc4nc(N)ncc4C#N)n(-c4ccccc4)c(=O)c23)ccn1 [Compound 185] | – | > 7.00 | 5.00 to 6.00
26 | C[C@H](Nc1nc(N)ncc1C#N)c1cc2cccc(-c3cccc(N(C)C)c3)c2c(=O)n1-c1ccccc1 [Compound 40] | 5.00 to 6.00 | – | –
27 | Cc1nc(-c2cnc(N)nc2N[C@@H](C)c2cc3cccc(Cl)c3c(=O)n2-c2ccccc2)sc1C [Compound 366] | 5.00 to 6.00 | – | –
28 | C[C@H](Nc1nc(N)ncc1C#N)c1cc2cccc(Cl)c2c(=O)n1-c1ccon1 [Compound 332] | – | > 7.00 | 5.00 to 6.00
29 | C[C@H](Nc1nc(N)ncc1C#N)c1cc2cccc(Cl)c2c(=O)n1Cc1ccccc1 [Compound 303] | 5.00 to 6.00 | – | –
30 | C[C@H](Nc1nc(N)ncc1-c1cscn1)c1cc2cccc(Cl)c2c(=O)n1-c1ccccc1 [Compound 360] | – | > 7.00 | 5.00 to 6.00
31 | C#Cc1cnc(N)nc1N[C@@H](C)c1cc2cccc(Cl)c2c(=O)n1-c1ccccc1 [Compound 91] | – | > 7.00 | 5.00 to 6.00
32 | COc1ccc(-c2cccc3cc([C@H](C)Nc4nc(N)ncc4C#N)n(C4CC4)c(=O)c23)cn1 [Compound 108] | – | > 7.00 | 5.00 to 6.00
33 | Cc1csc(-c2cnc(N)nc2N[C@@H](C)c2cc3cccc(Cl)c3c(=O)n2-c2ccccc2)n1 [Compound 136] | – | > 7.00 | 5.00 to 6.00
34 | COc1ccc(-n2c([C@H](C)Nc3nc(N)ncc3C#N)cc3cccc(Cl)c3c2=O)cc1 [Compound 214] | 5.00 to 6.00 | – | –
35 | C[C@H](Nc1nc(N)ncc1C#N)c1cc2cccc(Cl)c2c(=O)n1-c1cscn1 [Compound 249] | – | > 7.00 | 5.00 to 6.00
36 | C[C@H](Nc1nc(N)ncc1-c1cnn(C)c1)c1cc2cccc(Cl)c2c(=O)n1-c1ccccc1 [Compound 376] | 5.00 to 6.00 | – | –
37 | C[C@H](Nc1nc(N)ncc1C#N)c1cc2cccc(-c3cccc(Cl)c3)c2c(=O)n1-c1ccccc1 [Compound 34] | 5.00 to 6.00 | – | –
38 | C[C@H](Nc1nc(N)ncc1-c1ncco1)c1cc2cccc(Cl)c2c(=O)n1-c1ccccc1 [Compound 365] | – | > 7.00 | 5.00 to 6.00
39 | C[C@H](Nc1nc(N)ncc1C#N)c1cc2cccc(Cl)c2c(=O)n1-c1ccc(OC(F)(F)F)cc1 [Compound 210] | 5.00 to 6.00 | – | –
40 | CCn1c([C@H](C)Nc2nc(N)ncc2C#N)cc2cccc(Cl)c2c1=O [Compound 309] | – | > 7.00 | 5.00 to 6.00
41 | C[C@H](Nc1nc(N)ncc1C#N)c1nc2cccc(Cl)c2c(=O)n1-c1ccccc1 [Compound 59, (S)-2-amino-4-((1-(5-chloro-4-oxo-3-phenyl-3,4-dihydroquinazolin-2-yl)ethyl)amino)pyrimidine-5-carbonitrile] | – | > 7.00 | 5.00 to 6.00
42 | C[C@H](Nc1nc(N)ncc1C#N)c1cc2cccc(-c3ccnnc3)c2c(=O)n1-c1ccccc1 [Compound 57] | – | > 7.00 | 5.00 to 6.00
43 | Cc1ncc(-c2cccc3cc([C@H](C)Nc4nc(N)ncc4C#N)n(-c4ccccc4)c(=O)c23)cn1 [Compound 55] | – | > 7.00 | 5.00 to 6.00
44 | C[C@H](Nc1nc(N)ncc1C#N)c1cc2cccc(-c3cncc(OC(F)F)c3)c2c(=O)n1-c1ccccc1 [Compound 152] | – | > 7.00 | 5.00 to 6.00
45 | C[C@H](Nc1nc(N)ncc1C#N)c1cc2cccc(-c3ccc(F)cc3)c2c(=O)n1-c1ccccc1 [Compound 37] | 5.00 to 6.00 | – | –
46 | Cc1ncc(-c2cccc3cc([C@H](C)Nc4nc(N)ncc4C#N)n(-c4cccc(F)c4)c(=O)c23)cn1 [Compound 20] | – | > 7.00 | 5.00 to 6.00
47 | Cc1cc(-c2cccc3cc([C@H](C)Nc4nc(N)ncc4C#N)n(-c4ccccc4)c(=O)c23)cn(C)c1=O [Compound 231] | – | > 7.00 | 5.00 to 6.00
48 | CCOc1ncc(-c2cnc(N)nc2N[C@@H](C)c2cc3cccc(Cl)c3c(=O)n2-c2ccccc2)s1 [Compound 371] | – | > 7.00 | 5.00 to 6.00
